Values of other authors in US6960571B2, “Methods and compositions for administration of iron for the treatment of restless leg syndrome” (Luitpold Pharmaceuticals, Inc., priority 2003, dated 2005).
Where two headings read alike, the source gives them in different places.

Cc1nnc2n1-c1ccc(Cl)cc1C(c1ccccc1Cl)=NC2 [Triazolam]
% affected by side effects (Insomnia patients, drowsiness, dizziness, memory impairment): 1-14%

NCC1(CC(=O)O)CCCCC1 [Gabapentin]
% affected by side effects (Epilepsy patients, fatigue, dizziness, somnolence, ataxia): 11-19%

NC(=O)N1c2ccccc2C=Cc2ccccc21 [Carbamazepine]
% affected by side effects (Epilepsy patients, fetal malformation, rash, hyponatremia, hepatotoxicity, blood disorders, ataxia, gastro-intestinal problems, sexual dysfunction, toxicity): 1-33%

CCCN[C@H]1CCc2nc(N)sc2C1 [Pramipexole]
% affected by side effects (Parkinson patients, somnolence, insomnia, nausea, constipation, hallucinations): 9-28%

Pergolide w/ levodopa/carbidopa
% affected by side effects (Parkinson patients, dyskinesia, nausea, hallucinations, rhinitis, constipation, pain): 7-62%

Clc1cccc(Cl)c1N=C1NCCN1 [Clonidine]
% affected by side effects (Hypertension patients, reduced blood pressure, dermatitis, systemic side effects (dry mouth, somnolence, dizziness, headache)): 8-89%

levodopa/carbidopa
% affected by side effects (Parkinson patients, dyskinesia, nausea, hallucinations): 4-17%

O=C1CN=C(c2ccccc2Cl)c2cc([N+](=O)[O-])ccc2N1 [Clonazepam]
% affected by side effects (Epilepsy patients, somnolence, depression, in-coordination): 6-37%
